Measurements published in patent US20120196918A1, “PREVENTING ISLET INFLAMMATION AND DYSFUNCTION AND MAINTAINING PROPER GLUCOSE LEVELS BY CONTROLLING eIF5A AND ITS HYPUSINATION” (priority 2009, published 2012).

What was measured:
iNOS = assay: Cytokine-induced iNOS protein in islets from siRNA-injected mice (immunoblot); assay type: cell-based, mouse; conditions: cytokines 4 h
Procedure: Because nitric oxide is known to be a primary effector of islet dysfunction in response to cytokine-induced stress, the transcription of the gene encoding iNOS (Nos2) was also examined.
Cytokine and inhibitor incubation studies: For cytokine incubation assays, a 1000× cocktail of cytokines containing 5 μg/ml IL1β, 10 μg/ml TNFα, and 100 μg/ml IFNγ (all prepared in 0.1% BSA in Tris-buffered saline) was applied at 1× final concentration to groups of 50 islets or 1×10^6 INS-1 (832/13) cells for a total of 4 h at 37° C. […]
Immunoblot and nitrite and iNOS assays: Whole cell extracts were resolved by electrophoresis on a 4-20% SDS-polyacrylamide gel, followed by immunoblot using anti-eIF5A1, anti-eIF5A2, anti-iNOS, anti-GFP, or anti-actin primary antibodies and fluorophore-labeled secondary antibodies. Immunoblots were visualized using the Li-Cor® Odyssey® system (Li-Cor Biosciences) and quantitated by scanning fluorometry using Odyssey Imaging v. […] Nitrite was quantitated by measuring nitric oxide-derived nitrite from INS-1 cell culture medium using the Griess reagent (Promega) according to the manufacturer's recommendations. iNOS activity was measured using a commercially available kit (Cayman).

Nos2 mRNA = assay: Nos2 transcript levels in INS-1 cells (quantitative RT-PCR); assay type: cell-based, rat; conditions: 125 μM GC7, cytokines
Excerpt: eIF5A1 and eIF5A2 are the only proteins known to contain the unique amino acid hypusine at position 50. Hypusine is formed as a posttranslational modification of residue Lys50 in a reaction requiring spermidine and catalyzed by the sequential actions of the enzymes deoxyhypusine synthase (DHS) and deoxyhypusine hydroxylase (DOHH) (Chen, K Y, and Liu, A Y. Biochemistry and function of hypusine formation on eukaryotic initiation factor 5A. Biol Signals. 1997; 6(3):105-109). […] To further investigate the mechanism of eIF5A-regulated translation of Nos2, studies were performed following overnight incubation of cells with mimosine (an inhibitor of DOHH) and GC7 (an inhibitor of DHS). […] Similar data using GC7 were obtained in primary mouse islets (data not shown) and in human islets (FIGS. 5F and 5G). […]
Quantitative RT-PCR: Five micrograms of total RNA from islets or INS-1 cells were reverse-transcribed as detailed previously (77). cDNA was subjected to quantitative PCR using SYBR Green-based technology and published primers for mouse Ins1/2 pre-mRNA (78) and QuantiTech® primers (Qiagen) for all other mouse genes. […] All samples were corrected for total input RNA as quantitated by an Experion® (Bio-Rad) bioanalyzer. […]

[1] = tested on: LPS-treated NOD/Scid-(IL-2Rγ-null) mice; assay: LPS injection model in NOD/Scid-(IL-2Rγ-null) mice; assay type: in vivo, mouse; conditions: GC7 4 mg/kg/day i.p.
Procedure: Because systemic GC7 delivery would be expected to inhibit hypusination in all cells that express DHS, it is unclear if the islet protection afforded by GC7 in vivo is a result of its effects in the islet, the immune cells, or both. In order to clarify this, the IL-1 responses in STZ-treated C57BL/6J animals were assessed by measuring levels of the IL-1-responsive cytokine IL-6. […] No alterations in serum levels of IL13 and Rantes/CCL5 were observed between treatment groups (FIG. 10F). […] To address the role of immune cells more directly, a mouse model was generated to test the role of hypusination in the islet inflammatory response independently of the immune system. Lipopolysaccharide (LPS) is an agent that evokes the NFkB response through activation of the toll-like receptor 4 (TLR4) (48), which is also expressed in pancreatic islets (49). […]
GSIS and IPGTT studies: For GSIS studies using isolated islets, approximately 50 islets or 1×10^6 INS-1 cells per condition were washed and incubated in Krebs-Ringer HEPES-buffered (KRB) solution for one hour at 37° C., and then placed in KRB solution containing 3 mM or 11 mM glucose for one hour. […] Blood glucose was measured from samples taken from the tail vein before intraperitoneal injection of 1 g glucose per kg mouse weight, and at 10, 20, 30, 60, 90, 120, and 180 minutes after glucose administration using an A1phaTrak® glucometer (Abbott). […]

Compound | induction of iNOS protein in islets (iNOS) | Nos2 transcript levels (Nos2 mRNA) | glucose intolerance in IPGTT 3 days after LPS ([1]; LPS 20 mg/kg single injection) | iNOS staining intensity in islets ([1]; LPS 20 mg/kg)
5′-AACGGAAUGACUUCCAGCUGA-3′ (siSTABLE modification, further chemistry not given here) [si-eIF5A] | significantly attenuated | – | – | –
NCCCCCCCN=C(N)N [GC7] | – | remained disproportionately elevated | no evidence of glucose intolerance | increased iNOS staining intensity in islets of vehicle-treated animals, but not in GC7-treated animals
